Measurements reported in US20100311790A1 (priority 2007, published 2010).

Key:
Sclerotinia sclerotiorum = experiment: Test Examples 2 and 3: preventive effect on Sclerotinia rot disease of cucumber, foliar spray; format: in vivo; settings: cucumber (Sagami Hanjiro), flowable formulation diluted to 200 ppm, foliar spray before inoculation, 18° C. for 4 days under high humidity
Experimental: (§1) The area of lesions on the test plants at testing was visually observed, and the control effect was evaluated by comparing the area of lesions on test plants treated with the invented compound with the area of lesions on untreated plants.
Test for Showing Preventive Effect on Sclerotinia Rot Disease of Cucumber (Sclerotinia sclerotiorum)
Sand soil was packed in a plastic pot, and seeds of cucumber (variety: Sagami Hanjiro) were sowed therein and grown for 12 days in a greenhouse. […] After spraying, the plant was air-dried and PDA medium containing hyphae of Sclerotinia sclerotiorum was placed on the surface of leaves of the cucumber. After the inoculation, the plant was left at 18° C. for 4 days under high humidity, area of lesions was examined. As a result, the lesion area on the plant treated with the invented compounds (1), (3)-(27) and (28) was less than 10% of the lesion area on the untreated plant.
Sand soil was packed in a plastic pot, and seeds of cucumber (variety: Sagami Hanjiro) were sowed therein and grown for 12 days in a greenhouse. The invented compound (2) was formulated into flowable formulation in accordance with Formulation Example 6, and it was diluted with water to a given concentration (200 ppm) and was sprayed onto the foliage of the cucumber so that a sufficient amount of the compound would be applied to the surface of leaves of the cucumber. […]

Botrytis cinerea = experiment: Test Example 1: preventive effect on Botrytis disease of cucumber, foliar spray; format: in vivo; settings: cucumber (Sagami Hanjiro), flowable formulation diluted to 13 ppm, foliar spray before inoculation, 12° C. for 5 days under high humidity
Experimental: as §1
Test for Showing Preventive Effect on Botrytis Disease of Cucumber (Botrytis cinerea)
Sand soil was packed in a plastic pot, and seeds of cucumber (variety: Sagami Hanjiro) were sowed therein and grown for 12 days in a greenhouse. Each of the invented compounds (2), (3), (7), (11), (12), (15), (16), (18), (19), (21), (23), (24) and (27) and the comparative compound (A) was formulated into flowable formulation in accordance with Formulation Example 6, and it was diluted with water to a given concentration (13 ppm) and was sprayed onto the foliage of the cucumber so that a sufficient amount of the compound would be applied to the surface of leaves of the cucumber. After spraying, the plant was air-dried and PDA medium containing spores of Botrytis cinerea was placed on the surface of leaves of the cucumber. After the inoculation, the plant was left at 12° C. for 5 days under high humidity, and then the area of lesions was examined. As a result, the lesion area on the plant treated with the invented compounds (2), (3), (7), (11), (12), (15), (16), (18), (19), (21), (23), (24) and (27) was less than 30% of the lesion area on the untreated plant. […]

Structure (SMILES) | lesion area on the treated plant as % of the lesion area on the untreated plant (Sclerotinia sclerotiorum) | lesion area on the treated plant as % of the lesion area on the untreated plant (Botrytis cinerea) [%]
C=CCCOc1cccc(CNC(=O)c2ccc3ncccc3c2)c1F [(2)] | less than 10% | –
CC(C)=CCOc1cccc(CNC(=O)c2ccc3ncccc3c2)c1 [comparative compound (A), N-[3-(3-methyl-2-butenyloxy)phenyl]methyl-quinoline-6-carboxamide] | – | 98
